Assay results published in patent US9890139B2, “CYP17 inhibitors/antiandrogens” (Orion Corporation, priority 2013, dated 2018).
pIC50: −log10 of the molar value. Where two headings read alike, the source gives them in different places.

What was measured:
full-length human AR = biological target: T1, full-length human AR (Homo sapiens, UniProt P10275); test: AR antagonism, reporter gene assay in hAR/HEK293 cells; format: cell-based; details: HEK293 cells stably transfected with full-length human AR and androgen responsive luciferase reporter; co-treated with submaximal testosterone (usually 0.45 nM); 1% DMSO; triplicates
T1 construct: expression vector encoding full-length human AR; expressed in transfected cells; host or cells: HEK293 (hAR/HEK293 cells)
T1 sequence (P10275 1-920): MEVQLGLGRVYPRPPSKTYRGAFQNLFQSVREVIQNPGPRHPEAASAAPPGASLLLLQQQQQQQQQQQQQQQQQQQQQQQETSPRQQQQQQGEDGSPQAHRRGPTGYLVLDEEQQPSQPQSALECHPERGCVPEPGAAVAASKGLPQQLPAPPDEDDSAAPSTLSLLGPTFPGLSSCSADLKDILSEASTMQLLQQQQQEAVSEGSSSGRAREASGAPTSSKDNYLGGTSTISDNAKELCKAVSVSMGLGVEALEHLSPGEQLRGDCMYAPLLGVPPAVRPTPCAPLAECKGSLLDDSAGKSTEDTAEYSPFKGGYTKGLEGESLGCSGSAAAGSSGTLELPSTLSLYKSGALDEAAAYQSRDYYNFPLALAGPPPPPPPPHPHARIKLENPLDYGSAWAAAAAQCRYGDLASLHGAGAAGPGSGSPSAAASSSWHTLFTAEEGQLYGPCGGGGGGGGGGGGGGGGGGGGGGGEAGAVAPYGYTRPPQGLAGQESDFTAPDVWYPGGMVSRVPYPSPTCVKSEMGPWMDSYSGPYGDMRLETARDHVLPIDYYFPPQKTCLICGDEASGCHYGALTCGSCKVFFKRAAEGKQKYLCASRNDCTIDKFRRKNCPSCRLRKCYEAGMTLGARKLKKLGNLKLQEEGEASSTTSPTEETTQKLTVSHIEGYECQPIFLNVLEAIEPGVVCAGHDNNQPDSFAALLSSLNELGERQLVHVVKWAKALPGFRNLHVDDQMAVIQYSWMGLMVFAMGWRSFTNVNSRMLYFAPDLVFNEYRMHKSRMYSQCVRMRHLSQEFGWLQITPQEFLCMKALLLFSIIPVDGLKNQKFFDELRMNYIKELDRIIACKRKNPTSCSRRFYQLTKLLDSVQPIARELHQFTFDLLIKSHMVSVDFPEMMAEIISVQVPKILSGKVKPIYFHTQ
Experimental: Antagonism of test compounds for AR was measured by reporter gene assay in human embryonic kidney (HEK293) cells stably transfected with an expression vector encoding full-length human AR and androgen responsive luciferase reporter gene construct (hAR/HEK293 cells). To determine antagonism for hAR, the cells were treated simultaneously with increasing concentrations of the test compound and submaximal concentration of testosterone (usually 0.45 nM). The final DMSO concentration was 1%. All test compounds were studied in triplicates. The cells were incubated for […] before measurement of luciferase activity using Luciferase Assay System (Promega Corporation).

17,20 lyase (CYP17) = biological target: T2, 17,20 lyase (CYP17) (Homo sapiens, UniProt P05093); test: 17,20 lyase (CYP17) inhibition, acetic acid release assay (AARA) on H295R cells; format: cell-based
T2 construct: endogenous in cells; host or cells: H295R human adrenocortical carcinoma cells
T2 sequence (P05093 1-508): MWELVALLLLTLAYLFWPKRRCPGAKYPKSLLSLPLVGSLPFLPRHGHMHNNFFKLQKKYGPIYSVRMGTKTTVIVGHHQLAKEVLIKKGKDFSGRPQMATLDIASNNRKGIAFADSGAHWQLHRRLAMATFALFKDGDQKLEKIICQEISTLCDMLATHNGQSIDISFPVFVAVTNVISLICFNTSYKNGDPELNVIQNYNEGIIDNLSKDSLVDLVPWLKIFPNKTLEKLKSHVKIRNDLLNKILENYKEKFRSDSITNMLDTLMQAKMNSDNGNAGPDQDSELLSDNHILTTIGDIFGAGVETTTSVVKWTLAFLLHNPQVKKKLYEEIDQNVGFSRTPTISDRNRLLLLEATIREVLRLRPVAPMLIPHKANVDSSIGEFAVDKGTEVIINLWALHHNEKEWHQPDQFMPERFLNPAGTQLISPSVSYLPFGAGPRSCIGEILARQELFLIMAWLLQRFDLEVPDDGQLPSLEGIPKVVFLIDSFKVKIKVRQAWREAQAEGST
Experimental: The ability of the test compounds to inhibit 17,20 lyase catalysed conversion of 17α-hydroxypregnenolone to dehydroepiandrosterone and acetic acid was measured by acetic acid release assay (AARA) on human H295R adrenocortical carcinoma cell line (Grigoryev, D. N. et al., Analytical Biochemistry 1999; 267:319-330). […] The final DMSO concentration was 1%. Cell culture medium was extracted with dextran-coated charcoal suspension (Isomaa, V. et al., Endocrinology 1982; 111(3):833-843). ^3H-acetic acid was determined by mixing 100 μl of supernatant fraction in 200 μl of scintillation fluid (OptiPhase SuperMix, Perkin Elmer). Radioactivity was measured using a Microbeta scintillation counter (1450 MicroBeta Trilux, Wallac). All the test compounds were studied in quadruplicates.

[1] = human H295R adrenocortical carcinoma cells, overnight (16-19 h) with 17α-[21-3H]hydroxypregnenolone, 3H-acetic acid release, 1% DMSO, quadruplicates, read-out: CYP17 inhibition IC50

SMILES	pIC50 (full-length human AR)	pIC50 (17,20 lyase (CYP17); [1])	pIC50 (17,20 lyase (CYP17))
CN(c1ccc(C#N)c(C(F)(F)F)c1)C1C=C(n2ccnc2)CCC1(C)C (racemic) [Ex. 130 racemate, 4-{[3-(1H-Imidazol-1-yl)-6,6-dimethylcyclohex-2-enyl](methyl)amino}-2-(trifluoromethyl)benzonitrile]	7.19	7.85	–
CCN(c1ccc(C#N)c(C(F)(F)F)c1)C1CC(n2ccnc2)CCC1(C)C (single isomer, unassigned) [Ex. 46 cis-enantiomer 2, 4-((5-(1H-Imidazol-1-yl)-2,2-dimethylcyclohexyl)(ethyl)amino)-2-(trifluoromethyl)benzonitrile]	7.40	–	7.31
CN(c1ccc(C#N)c(C(F)F)c1)C1C=C(n2ccnc2)CCC1(C)C (single isomer, unassigned) [Ex. 240(b), 4-((3-(1H-imidazol-1-yl)-6,6-dimethylcyclohex-2-enyl)(methyl)amino)-2-(difluoromethyl)benzonitrile (pure enantiomer)]	7.28	7.48	–
COc1cc(N(C)C2C=C(n3ccnc3)CCC2(C)C)ccc1C#N (stereo not drawn) [Ex. 252, 4-{[3-(1H-Imidazol-1-yl)-6,6-dimethylcyclohex-2-enyl](methyl)amino}-2-methoxybenzonitrile]	6.85	7.48	–
CN(c1ccc(C#N)c(C(F)(F)F)c1)[C@@H]1C=C(n2ccnc2)[C@H](O)CC1(C)C (relative stereo) [Ex. 236, Cis-4-((4-hydroxy-3-(1H-imidazol-1-yl)-6,6-dimethylcyclohex-2-enyl)-(methyl)amino)-2-(trifluoromethyl)benzonitrile]	6.91	–	6.61
CCN(c1ccc(C#N)c(C(F)(F)F)c1)C1CC=C(c2cnco2)C1 (single isomer, unassigned) [Ex. 233 enantiomer 1, 4-(Ethyl(3-(oxazol-5-yl)cyclopent-3-enyl)amino)-2-(trifluoromethyl)benzonitrile]	7.23	–	7.18
CCN(c1ccc(C#N)c(C(F)(F)F)c1)C1C=C(n2ccnc2)C2(CC1)CC2 (stereo not drawn) [Ex. 107, 4-((4-(1H-imidazol-1-yl)spiro[2.5]oct-4-en-6-yl)(ethyl)amino)-2-(trifluoromethyl)benzonitrile]	7.29	–	7.48
CCCn1cncc1C1=CCC(N(CC)c2ccc(C#N)c(C(F)(F)F)c2)C1 (stereo not drawn) [Ex. 103, 4-(Ethyl(3-(1-propyl-1H-imidazol-5-yl)cyclopent-3-en-1-yl)amino)-2-(trifluoromethyl)benzonitrile]	7.24	–	7.54
CCN(c1ccc(C#N)c(C(F)(F)F)c1)C1CCC(n2ccnc2)C1 (single isomer, unassigned) [Ex. 86 trans-enantiomer 1, 4-((-3-(1H-imidazol-1-yl)cyclopentyl)(ethyl)amino)-2-(trifluoromethyl)benzonitrile]	7.14	–	7.57
CN(c1ccc(C#N)c(C(F)(F)F)n1)C1C=C(n2ccnc2)CCC1(C)C (stereo not drawn) [Ex. 250, 6-{[3-(1H-Imidazol-1-yl)-6,6-dimethylcyclohex-2-enyl](methyl)amino}-2-(trifluoromethyl)nicotinonitrile]	6.69	7.57	–
CCN(c1ccc(C#N)c(C(F)(F)F)c1)C1CCC=C(c2ccncc2OC)C1 (single isomer, unassigned; isomer 4) [Ex. 84 3,4-isomer, 4-(Ethyl(3-(3-methoxypyridin-4-yl)cyclohex-3-en-1-yl)amino)-2-(trifluoromethyl)benzonitrile]	7.30	–	7.02
CCN(c1ccc(C#N)c(C(F)(F)F)c1)C1CC=C(c2cncn2C2CC2)C1 (racemic) [Ex. 53, 4-((3-(1-Cyclopropyl-1H-imidazol-5-yl)cyclopent-3-enyl)(ethyl)amino)-2-(trifluoromethyl)benzonitrile]	7.24	–	7.72
CCN(c1ccc(C#N)c(C(F)(F)F)c1)C1C=C(n2ccnc2)CCC1 (stereo not drawn) [Ex. 63, 4-((3-(1H-imidazol-1-yl)cyclohex-2-en-1-yl)(ethyl)amino)-2-(trifluoromethyl)benzonitrile]	7.47	–	7.15
CCN(c1ccc(C#N)c(C(F)(F)F)c1)[C@@H]1CCCN(c2ccncc2F)C1 [Ex. 160, (R)-4-(Ethyl(1-(3-fluoropyridin-4-yl)piperidin-3-yl)amino)-2-(trifluoromethyl)benzonitrile]	7.57	–	6.95
CCN(c1ccc(C#N)c(Cl)c1)C1CCCC(n2ccnc2)C1 (single isomer, unassigned; diastereomer 4) [Ex. 91 cis-diastereomer, 4-((3-(1H-imidazol-1-yl)cyclohexyl)(ethyl)amino)-2-chlorobenzonitrile]	7.19	–	7.44
CCN(c1ccc(C#N)c(C(F)(F)F)c1)C1CCCC(n2cncn2)C1 (single isomer, unassigned; diastereomer 4) [Ex. 209 cis-diastereomer, 4-((3-(1H-1,2,4-triazol-1-yl)cyclohexyl)(ethyl)amino)-2-(trifluoromethyl)-benzonitrile]	7.25	–	6.81
CCN(c1ccc(C#N)c(C(F)(F)F)c1)C1CC=C(n2ccnc2)C1(C)C (stereo not drawn) [Ex. 275, 4-((3-(1H-imidazol-1-yl)-2,2-dimethylcyclopent-3-en-1-yl)(ethyl)amino)-2-(trifluoromethyl)benzonitrile]	7.20	–	7.09
CN(c1ccc(C#N)c(C(F)(F)F)c1)C1C(O)C(c2c[nH]cn2)=CCC1(C)C (single isomer, unassigned) [Ex. 245, 4-{[2-Hydroxy-3-(1H-imidazol-4-yl)-6,6-dimethylcyclohex-3-enyl](methyl)-amino}-2-(trifluoromethyl)benzonitrile]	–	7.01	–
CCN(c1ccc(C#N)c(Cl)c1)C1CC=C(c2c[nH]cn2)C1 (stereo not drawn) [Ex. 133, 4-((3-(1H-Imidazol-4-yl)cyclopent-3-en-1-yl)(ethyl)amino)-2-chlorobenzonitrile]	–	8.15	–
CCN(c1cc(F)c(C#N)c(F)c1)C1CCCC(n2ccnc2)C1 (single isomer, unassigned; diastereomer 4) [Ex. 12 cis-diastereomer]	–	7.74	–
CCN(c1ccc(C#N)c(C(F)(F)F)c1)C1CCC(c2cnc[nH]2)C1 (stereo not drawn) [Ex. 219, 4-((3-(1H-imidazol-5-yl)cyclopentyl)(ethyl)amino)-2-(trifluoromethyl)-benzonitrile]	–	6.98	–
CCN(c1ccc(C#N)c(C(F)(F)F)c1)C1CC=C(c2c[nH]cn2)C1 (stereo not drawn) [Ex. 150, 4-((3-(1H-imidazol-4-yl)cyclopent-3-en-1-yl)(ethyl)amino)-2-(trifluoromethyl)benzonitrile]	–	7.77	–
